This is an account of results in ChEMBL document CHEMBL4834431, “Design of Dimeric Bile Acid Derivatives as Potent and Selective Human NTCP Inhibitors” (J Med Chem, 2021).

Activity calls are given as the source filed them. No cut-off for these calls is given here.

Series [1] in a line: Toxicity in C57B/L mouse assessed as effect on body weight at 50 mg/kg, ip administered twice daily for 3 days. The format is organism-based. The following applies: in vivo, 72 h, time 3 day.
Series [2] addresses T1, Hepatic sodium/bile acid cotransporter (Homo sapiens, UniProt Q14973).
T1 sequence (Q14973 whole entry): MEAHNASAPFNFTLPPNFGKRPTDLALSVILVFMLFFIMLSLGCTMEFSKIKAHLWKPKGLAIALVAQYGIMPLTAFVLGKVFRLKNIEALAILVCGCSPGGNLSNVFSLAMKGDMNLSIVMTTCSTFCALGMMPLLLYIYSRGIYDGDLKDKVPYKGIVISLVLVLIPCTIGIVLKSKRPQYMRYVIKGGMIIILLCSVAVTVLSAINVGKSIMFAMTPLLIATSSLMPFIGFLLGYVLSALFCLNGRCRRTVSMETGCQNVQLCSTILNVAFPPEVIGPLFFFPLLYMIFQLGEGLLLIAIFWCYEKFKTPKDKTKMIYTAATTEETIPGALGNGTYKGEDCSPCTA
Nature of the series: Inhibition of human NTCP-mediated [3H]-TCA uptake expressed in human HepG2 cells in presence of 20 % FBS. The format is cell-based.

Series [3] concerns Mus musculus. Nature of the series: Effect on wild-type C57B/L mouse assessed as increase in total bile acid level at 50 mg/kg, ip administered twice daily for 3 days. It counts as functional, organism-based. To be noted: time 3.0 day.
A short description of series [4]: Stability in human liver microsomes assessed as half life at 1 uM preincubated for 5 mins followed by NADPH addition and measured upto 60 mins by LC-MS analysis. The format is ADME, Microsome. To be noted: time 65 min. For orientation: Liver microsomes are vesicles of endoplasmic reticulum, rich in cytochrome P450 enzymes.
The nature of series [5]: Stability in human liver microsomes assessed as intrinsic clearance at 1 uM preincubated for 5 mins followed by NADPH addition and measured upto 60 mins by LC-MS analysis. It counts as ADME, Microsome. The following applies: time 65 min, read-out: CLH.
Series [6] relates to Mus musculus. As to the kind of experiment: Effect on human NTCP knock-in C57B/L mouse assessed as increase in total bile acid level at 50 mg/kg, ip administered twice daily for 3 days. The format is functional, organism-based. The following applies: time 3.0 day.
Series [7] in a line: Plasma protein binding in human. It counts as ADME, cell-free. The following applies: read-out: PPB.
The target in series [8] is T2, Hepatic sodium/bile acid cotransporter (Mus musculus, UniProt O08705).
T2 sequence (O08705 whole entry): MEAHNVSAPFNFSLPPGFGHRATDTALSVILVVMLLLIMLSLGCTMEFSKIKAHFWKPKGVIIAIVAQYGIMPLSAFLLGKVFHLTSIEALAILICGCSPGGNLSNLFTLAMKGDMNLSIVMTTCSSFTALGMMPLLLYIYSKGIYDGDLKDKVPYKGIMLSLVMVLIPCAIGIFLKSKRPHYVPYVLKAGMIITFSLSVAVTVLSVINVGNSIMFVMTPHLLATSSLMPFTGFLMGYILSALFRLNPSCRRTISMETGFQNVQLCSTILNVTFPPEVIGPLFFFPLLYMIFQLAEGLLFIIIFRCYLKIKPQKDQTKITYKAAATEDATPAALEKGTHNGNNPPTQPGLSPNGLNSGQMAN
Nature of the series: Inhibition of mouse NTCP-mediated [3H]-TCA uptake expressed in human HepG2 cells in presence of mouse serum. The format is cell-based.

In series [9] the target is T1, Hepatic sodium/bile acid cotransporter. Nature of the series: Inhibition of human NTCP-mediated [3H]-TCA uptake expressed in human HepG2 cells pretreated for 2 hrs followed by [3H]-TCA addition in absence of FBS. It counts as cell-based.
Series [10] in a line: Stability in mouse liver microsomes assessed as intrinsic clearance at 1 uM preincubated for 5 mins followed by NADPH addition and measured upto 60 mins by LC-MS analysis. The format is ADME, Microsome. To be noted: time 65 min, read-out: CLH.
Series [11] deals with T1, Hepatic sodium/bile acid cotransporter. Nature of the series: Inhibition of human NTCP-mediated [3H]-TCA uptake expressed in human HepG2 cells in presence of 50 % FBS. It counts as cell-based.
The nature of series [12]: Bioavailability in ip dosed C57B/L mouse by LC/MS analysis. It counts as ADME, organism-based. The following applies: in vivo.
Series [13] is described as follows: Stability in mouse liver microsomes assessed as half life at 1 uM preincubated for 5 mins followed by NADPH addition and measured upto 60 mins by LC-MS analysis. The format is ADME, Microsome. To be noted: time 65 min.
Series [14] can be described thus: Half life in ip dosed C57B/L mouse by LC/MS analysis. It counts as ADME, organism-based. To be noted: in vivo.
The nature of series [15]: Oral bioavailability in C57B/L mouse by LC/MS analysis. It counts as ADME, organism-based. To be noted: in vivo.
The target in series [16] is T1, Hepatic sodium/bile acid cotransporter. As to the kind of experiment: Inhibition of human NTCP-mediated [3H]-TCA uptake expressed in human HepG2 cells in presence of human serum. It counts as cell-based.
Series [17] in a line: Toxicity in C57B/L mouse assessed as effect on ALT level at 50 mg/kg, ip administered twice daily for 3 days. It counts as organism-based. To be noted: in vivo, 72 h, time 3 day.
The nature of series [18]: Plasma protein binding in mouse. The format is ADME, cell-free. The following applies: read-out: PPB.
Series [19] has as its system Hepatitis B virus. As to the kind of experiment: Antiviral activity against HBV infected in human HepG2-NTCP cells assessed as reduction in HBeAg secretion incubated for 24 hrs followed replacement with fresh medium and measured at day 5 post infection by ELISA. The format is functional, organism-based.
For series [20], the system named is HepG2. Nature of the series: Inhibition of human NTCP-mediated [3H]-TCA uptake expressed in human HepG2 cells in presence of bovine serum. The following applies: Bos taurus. The format is cell-based.
Series [21] has as its target T2, Hepatic sodium/bile acid cotransporter. Nature of the series: Inhibition of mouse NTCP-mediated [3H]-TCA uptake expressed in human HepG2 cells in presence of human serum. It counts as cell-based.

Broadly, the IC50 is the concentration at which inhibition is half-maximal. A word on the half-life: it is the time in which the quantity being followed falls by half. The bioavailability is dose-corrected exposure relative to a reference, in per cent. Low values mean little systemic uptake, high ones much systemic uptake. Turning to `C[C@@H]1CCC(=O)NC(C(=O)NCCS(=O)(=O)O)CNC(=O)CC[C@@H](C)[C@H]2CC[C@H]3[C@@H]4[C@@H](O)C[C@@H]5C[C@@H](CC[C@]5(C)[C@H]4CC[C@]23C)n2cc(nn2)CO[C@@H]2CC[C@@]3(C)[C@@H](C2)C[C@H](O)[C@@H]2[C@@H]3CC[C@]3(C)[C@@H]1CC[C@@H]23` (stereo partly specified), the Activity entry in series [1] and in [17] was “Non-Toxic” each time. The IC50 was 54 nM in series [2], 23.5 nM in [9], 81.5 nM in series [11] and 178 nM in series [19]. Moreover, the outcome in series [3] was inactive. Besides, the half-life at 1 µM came to 1.89 h in series [4] and 0.929 h in series [13]. Further, the microsomal CLint at 1 µM in series [5] is 6.1 µL/min/mg; in [10], 12 µL/min/mg. In addition, the outcome in [6] was Active. Besides, the fraction unbound in [7] and in [18] was 0.01 in each case. Besides, the “inhibition (INH)” value is given as “Not Active” in [8], “Active” in series [16] and “Not Active” in series [21]. Moreover, the bioavailability in series [12] was determined as 32%; in [15] it was 1.3%. The compound also had a half-life in series [14] of 1.6 h. In [20], the inhibition entry was “Active”.
